Calls of active or inactive are those of the source.

The values that follow come from ChEMBL document CHEMBL1201862, “PubChem BioAssay data set” (2004).

The target in data set [1] is Nucleotide-binding oligomerization domain-containing protein 1 (Homo sapiens, UniProt Q9Y239). As to the kind of experiment: NOD1 signaling inhibitors, SAR follow-up, revised (AID 2333). It counts as functional.
The subject of another data set is HEK293. Put plainly: cells. The settings on record: Homo sapiens.
A further data set concerns the target Tumor necrosis factor (Homo sapiens, UniProt P01375). As to the kind of experiment: TNFa-triggered NF-kB activation inhibitors, SAR follow-up, cell-based, revised (AID 2337). It is filed as functional.
For the next data set, the target named is Bcl-2-like protein 1 (Homo sapiens, UniProt Q07817). As to the kind of experiment: BCL-XL inhibitors, dose response, selectivity assay for MCL1 inhibitor project, biochemical, fluorescence polarization, 1536-well (AID 2218). (Polarisation of emitted light reports the rotation of a fluorescent probe.)
Chain of Bcl-2-like protein 1 (Q07817 whole entry): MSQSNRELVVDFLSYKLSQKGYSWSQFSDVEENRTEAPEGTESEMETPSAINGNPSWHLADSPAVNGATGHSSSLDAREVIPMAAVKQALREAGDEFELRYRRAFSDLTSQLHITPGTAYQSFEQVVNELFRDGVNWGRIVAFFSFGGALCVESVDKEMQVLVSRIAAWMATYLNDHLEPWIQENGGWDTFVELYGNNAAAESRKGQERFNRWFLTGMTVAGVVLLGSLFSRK
Data set [2] concerns the target Induced myeloid leukemia cell differentiation protein Mcl-1 (Homo sapiens, UniProt Q07820). As to the kind of experiment: MCL1-BIM BH3 interaction inhibitors, dose response, biochemical, fluorescence polarization, BIM-BH3 peptide, 1536-well (AID 2217).
Data set [3] addresses Intestinal-type alkaline phosphatase (Homo sapiens, UniProt P09923). As to the kind of experiment: inhibition of human intestinal alkaline phosphatase – biochemical, dose response (AID 488876). It is filed as functional.
Data set [4] concerns the target T1, Alkaline phosphatase, tissue-nonspecific isozyme (Homo sapiens, UniProt P05186).
T1 sequence (P05186 whole entry): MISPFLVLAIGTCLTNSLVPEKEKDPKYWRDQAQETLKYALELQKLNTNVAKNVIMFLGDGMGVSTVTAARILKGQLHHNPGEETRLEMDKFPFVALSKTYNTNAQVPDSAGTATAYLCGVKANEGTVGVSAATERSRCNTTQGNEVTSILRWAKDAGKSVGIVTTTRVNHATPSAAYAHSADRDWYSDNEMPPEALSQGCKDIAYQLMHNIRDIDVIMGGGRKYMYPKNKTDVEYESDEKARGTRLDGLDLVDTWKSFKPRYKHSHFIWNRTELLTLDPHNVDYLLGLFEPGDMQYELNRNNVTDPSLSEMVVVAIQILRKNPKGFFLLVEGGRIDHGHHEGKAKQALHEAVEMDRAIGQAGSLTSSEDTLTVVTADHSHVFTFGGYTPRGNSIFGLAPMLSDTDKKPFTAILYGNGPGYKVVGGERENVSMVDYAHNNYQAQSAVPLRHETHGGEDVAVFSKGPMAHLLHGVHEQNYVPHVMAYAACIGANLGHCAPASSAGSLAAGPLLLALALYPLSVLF
As to the kind of experiment: TNAP enzyme inhibition by screening hits, dose response, selectivity assay for mouse IAP inhibitor project, biochemical, human TNAP, uHTS hits (AID 488906). It counts as functional.

The target in data set [5] is Intestinal-type alkaline phosphatase (Mus musculus, UniProt P24822). As to the kind of experiment: PubChem AID 488785. It is filed as functional.
Chain of Intestinal-type alkaline phosphatase (Mus musculus, UniProt P24822) (P24822 whole entry): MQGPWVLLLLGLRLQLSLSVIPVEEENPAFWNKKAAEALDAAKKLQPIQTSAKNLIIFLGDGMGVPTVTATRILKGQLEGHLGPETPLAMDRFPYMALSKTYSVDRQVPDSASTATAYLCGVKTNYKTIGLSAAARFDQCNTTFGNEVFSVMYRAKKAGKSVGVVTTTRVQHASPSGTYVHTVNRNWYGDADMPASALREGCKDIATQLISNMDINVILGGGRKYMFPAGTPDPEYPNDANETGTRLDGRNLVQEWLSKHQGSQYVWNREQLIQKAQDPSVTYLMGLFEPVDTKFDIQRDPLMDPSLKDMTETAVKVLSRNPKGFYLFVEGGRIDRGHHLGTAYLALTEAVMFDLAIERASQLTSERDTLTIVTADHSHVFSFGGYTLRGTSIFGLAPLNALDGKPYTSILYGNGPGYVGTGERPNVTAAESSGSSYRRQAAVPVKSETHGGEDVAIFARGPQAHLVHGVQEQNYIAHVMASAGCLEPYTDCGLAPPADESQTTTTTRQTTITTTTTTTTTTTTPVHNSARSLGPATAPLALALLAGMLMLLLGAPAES
In another data set the target is T2, Aminopeptidase N (Plasmodium falciparum FcB1/Columbia, UniProt O96935).
T2 sequence (O96935 whole entry): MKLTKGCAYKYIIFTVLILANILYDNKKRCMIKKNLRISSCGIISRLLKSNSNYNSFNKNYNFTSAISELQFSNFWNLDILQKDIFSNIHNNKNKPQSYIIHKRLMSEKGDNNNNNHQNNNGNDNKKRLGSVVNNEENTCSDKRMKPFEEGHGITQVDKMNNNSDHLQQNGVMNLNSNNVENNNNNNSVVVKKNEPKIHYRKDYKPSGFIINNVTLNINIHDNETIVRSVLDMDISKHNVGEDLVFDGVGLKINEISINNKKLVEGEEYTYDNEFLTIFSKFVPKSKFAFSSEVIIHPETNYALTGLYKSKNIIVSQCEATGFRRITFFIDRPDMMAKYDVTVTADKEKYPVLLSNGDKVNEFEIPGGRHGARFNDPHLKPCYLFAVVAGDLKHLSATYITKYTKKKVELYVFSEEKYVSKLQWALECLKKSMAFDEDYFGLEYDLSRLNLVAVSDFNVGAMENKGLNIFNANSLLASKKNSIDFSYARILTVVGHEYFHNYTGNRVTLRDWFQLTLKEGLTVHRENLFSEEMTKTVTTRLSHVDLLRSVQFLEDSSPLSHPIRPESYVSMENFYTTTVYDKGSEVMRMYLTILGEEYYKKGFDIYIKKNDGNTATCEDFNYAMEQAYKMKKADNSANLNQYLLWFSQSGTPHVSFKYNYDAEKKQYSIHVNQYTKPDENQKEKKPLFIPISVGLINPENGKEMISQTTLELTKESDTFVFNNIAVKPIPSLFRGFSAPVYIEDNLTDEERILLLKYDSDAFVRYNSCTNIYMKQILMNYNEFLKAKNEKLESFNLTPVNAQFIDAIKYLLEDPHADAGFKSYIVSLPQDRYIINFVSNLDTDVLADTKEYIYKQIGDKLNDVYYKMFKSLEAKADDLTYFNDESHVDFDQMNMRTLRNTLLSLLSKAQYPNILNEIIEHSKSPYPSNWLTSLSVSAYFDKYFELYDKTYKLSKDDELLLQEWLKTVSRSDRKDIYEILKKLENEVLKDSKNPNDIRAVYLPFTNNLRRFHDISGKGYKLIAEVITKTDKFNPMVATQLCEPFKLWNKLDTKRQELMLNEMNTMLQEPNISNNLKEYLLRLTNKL
As to the kind of experiment: P. falciparum M1AAP inhibitors, biochemical, fluorogenic H-Leu-NHMec substrate, 1536-well (AID 1445). Also noted: species or system Plasmodium falciparum 3D7, 3D7.

Data set [6] can be described thus: A cytotoxicity screen of small molecule inhibitors of the PhoP region in Salmonella typhi identified in the primary screen. [Related pubchem assays: 1850, 1864, 1985 ]. It is filed as functional.
The nature of data set [7]: growth induction of Burl-1 ts yeast mutant, dose response, counter-screen for SUMOylation pathway inhibitor project, whole organism, S. cerevisiae, luminescence (AID 463199). It is filed as functional. In general terms: The purpose of a counterscreen is to sort out artefacts and off-target activity.
For data set [8], the target named is T3, Cytochrome P450 2C9 (Homo sapiens, UniProt P11712).
T3 sequence (P11712 whole entry): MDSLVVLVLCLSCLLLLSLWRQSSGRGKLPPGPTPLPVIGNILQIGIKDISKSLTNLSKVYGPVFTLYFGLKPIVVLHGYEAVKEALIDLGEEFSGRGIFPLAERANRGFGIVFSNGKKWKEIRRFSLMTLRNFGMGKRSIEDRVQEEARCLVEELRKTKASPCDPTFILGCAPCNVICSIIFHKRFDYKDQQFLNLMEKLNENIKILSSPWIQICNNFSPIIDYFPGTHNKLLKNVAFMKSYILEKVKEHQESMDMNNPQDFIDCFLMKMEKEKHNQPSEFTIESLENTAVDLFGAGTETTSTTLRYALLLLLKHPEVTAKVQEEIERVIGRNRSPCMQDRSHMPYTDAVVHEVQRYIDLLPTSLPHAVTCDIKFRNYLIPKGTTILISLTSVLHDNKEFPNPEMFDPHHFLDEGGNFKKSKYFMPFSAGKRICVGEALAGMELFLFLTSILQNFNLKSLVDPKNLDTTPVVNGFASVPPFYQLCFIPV
Data set [9] has as its target T4, G-protein coupled receptor 35 (Homo sapiens, UniProt Q9HC97). As to the kind of experiment: SAR analysis of Antagonists of the GPR35 Receptor using an Image-Based Assay - Set 3. [Related pubchem assays (depositor defined):AID2013, AID2026]. It counts as functional.
The target in data set [10] is T5, Cannabinoid receptor 1 (Homo sapiens, UniProt P21554). As to the kind of experiment: SAR analysis of agonists of the Cannabinoid Receptor 1 using an Image-Based Assay - Set 2. [Related pubchem assays (depositor defined):AID2013, AID2026]. It counts as functional.
T5 sequence (P21554 whole entry): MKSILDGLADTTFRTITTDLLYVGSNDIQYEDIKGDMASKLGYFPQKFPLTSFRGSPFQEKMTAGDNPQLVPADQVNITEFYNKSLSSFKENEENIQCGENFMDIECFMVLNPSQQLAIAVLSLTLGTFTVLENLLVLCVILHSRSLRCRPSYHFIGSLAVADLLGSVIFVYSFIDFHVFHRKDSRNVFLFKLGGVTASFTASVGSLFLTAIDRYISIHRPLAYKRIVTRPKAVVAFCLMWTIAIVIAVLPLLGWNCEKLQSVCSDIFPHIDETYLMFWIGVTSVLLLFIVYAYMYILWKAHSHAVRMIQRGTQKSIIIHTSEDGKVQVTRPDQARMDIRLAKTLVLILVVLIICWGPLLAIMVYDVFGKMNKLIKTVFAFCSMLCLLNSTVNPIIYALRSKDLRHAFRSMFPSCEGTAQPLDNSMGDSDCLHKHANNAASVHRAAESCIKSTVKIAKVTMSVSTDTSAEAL
In data set [11] the target is T5, Cannabinoid receptor 1. Put plainly: SAR analysis of antagonists of the Cannabinoid Receptor 1 using an Image-Based Assay - Set 2. [Related pubchem assays (depositor defined):AID2013, AID2026]. It is filed as functional.
Data set [12] has as its target T6, Cannabinoid receptor 2 (Homo sapiens, UniProt P34972). As to the kind of experiment: SAR analysis of antagonists of the Cannabinoid Receptor 2 using an Image-Based Assay. [Related pubchem assays (depositor defined):AID2013, AID2026]. It counts as functional.
Data set [13] addresses G-protein coupled receptor 55 (Homo sapiens, UniProt Q9Y2T6). Put plainly: GPR55 antagonists blocking LPI-driven arrestin recruitment, primary screen, imaging, U2OS, beta-arrestin-GFP, LPI agonist (AID 2013).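 Note: antagonist potency measured as reduced agonist-driven arrestin aggregation.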 It is filed as functional. (Recruitment of arrestin is a read-out of receptor activation apart from second messengers.)
Data set [14] addresses T6, Cannabinoid receptor 2. As to the kind of experiment: SAR analysis of agonists of the Cannabinoid Receptor 2 using an Image-Based Assay. [Related pubchem assays (depositor defined):AID2013, AID2026]. It is filed as functional.
In data set [15] the target is T4, G-protein coupled receptor 35. Put plainly: SAR analysis of Agonists of the GPR35 Receptor using an Image-Based Assay - Set 2. [Related pubchem assays (depositor defined):AID2013, AID2026]. It counts as functional.
The target of a further data set is T7, Cytochrome P450 1A2 (Homo sapiens, UniProt P05177).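 Note: PubChem cytochrome P450 panel assay, CYP1A2 panel member.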
T7 sequence (P05177 whole entry): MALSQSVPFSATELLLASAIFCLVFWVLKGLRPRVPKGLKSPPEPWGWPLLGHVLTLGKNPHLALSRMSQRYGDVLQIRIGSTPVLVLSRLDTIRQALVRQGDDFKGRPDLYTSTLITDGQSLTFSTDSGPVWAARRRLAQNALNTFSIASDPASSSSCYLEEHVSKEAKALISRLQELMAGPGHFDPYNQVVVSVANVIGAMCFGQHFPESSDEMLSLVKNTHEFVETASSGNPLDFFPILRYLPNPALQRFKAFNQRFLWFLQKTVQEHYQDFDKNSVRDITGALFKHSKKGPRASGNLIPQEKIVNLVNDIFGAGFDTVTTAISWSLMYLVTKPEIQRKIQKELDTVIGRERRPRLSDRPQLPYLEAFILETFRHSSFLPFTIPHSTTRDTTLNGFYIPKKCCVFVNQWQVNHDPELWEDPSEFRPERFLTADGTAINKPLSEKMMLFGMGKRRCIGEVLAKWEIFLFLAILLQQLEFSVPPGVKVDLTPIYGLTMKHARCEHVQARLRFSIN

The target in data set [16] is T3, Cytochrome P450 2C9. The source holds these as a separate data set.
A further data set deals with Cytochrome P450 2C19 (Homo sapiens, UniProt P33261). Put plainly: Cytochrome panel assay with activity outcomes. Panel member name: p450-cyp2c19 Compounds with AC50 equal or less than 10 uM are considered active. It is filed as functional. As to conditions: read-out: AC50.
Chain of Cytochrome P450 2C19 (P33261 whole entry): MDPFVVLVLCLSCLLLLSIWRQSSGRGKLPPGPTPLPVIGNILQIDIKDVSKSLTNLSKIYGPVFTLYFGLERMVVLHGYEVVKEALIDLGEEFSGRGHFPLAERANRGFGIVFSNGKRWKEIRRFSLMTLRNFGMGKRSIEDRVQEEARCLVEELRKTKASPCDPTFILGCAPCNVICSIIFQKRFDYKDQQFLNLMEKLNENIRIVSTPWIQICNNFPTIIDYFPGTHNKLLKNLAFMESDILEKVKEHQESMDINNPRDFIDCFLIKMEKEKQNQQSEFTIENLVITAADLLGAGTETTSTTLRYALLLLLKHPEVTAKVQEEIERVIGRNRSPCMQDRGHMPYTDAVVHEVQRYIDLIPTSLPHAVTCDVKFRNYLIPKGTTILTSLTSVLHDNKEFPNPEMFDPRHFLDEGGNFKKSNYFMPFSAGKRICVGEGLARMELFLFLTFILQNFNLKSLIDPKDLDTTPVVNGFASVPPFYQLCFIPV

T6 sequence (P34972 whole entry): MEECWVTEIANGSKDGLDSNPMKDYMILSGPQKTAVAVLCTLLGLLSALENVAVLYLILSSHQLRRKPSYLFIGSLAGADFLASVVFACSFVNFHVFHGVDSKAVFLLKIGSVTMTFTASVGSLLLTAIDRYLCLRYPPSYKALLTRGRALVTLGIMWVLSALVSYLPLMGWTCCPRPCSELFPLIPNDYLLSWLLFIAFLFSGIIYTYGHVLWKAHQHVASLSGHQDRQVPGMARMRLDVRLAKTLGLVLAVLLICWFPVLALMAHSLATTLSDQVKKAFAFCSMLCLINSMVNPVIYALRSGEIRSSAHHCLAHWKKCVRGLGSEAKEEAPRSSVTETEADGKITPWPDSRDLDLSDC
T4 sequence (Q9HC97 whole entry): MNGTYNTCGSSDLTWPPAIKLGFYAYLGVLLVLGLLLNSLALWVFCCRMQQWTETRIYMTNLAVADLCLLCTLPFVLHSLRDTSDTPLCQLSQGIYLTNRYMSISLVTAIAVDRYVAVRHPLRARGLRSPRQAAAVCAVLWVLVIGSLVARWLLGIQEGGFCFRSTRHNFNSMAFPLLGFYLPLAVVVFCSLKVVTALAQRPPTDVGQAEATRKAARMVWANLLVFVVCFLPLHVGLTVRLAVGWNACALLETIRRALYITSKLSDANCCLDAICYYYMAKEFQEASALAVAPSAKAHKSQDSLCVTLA
Chain of G-protein coupled receptor 55 (Q9Y2T6 whole entry): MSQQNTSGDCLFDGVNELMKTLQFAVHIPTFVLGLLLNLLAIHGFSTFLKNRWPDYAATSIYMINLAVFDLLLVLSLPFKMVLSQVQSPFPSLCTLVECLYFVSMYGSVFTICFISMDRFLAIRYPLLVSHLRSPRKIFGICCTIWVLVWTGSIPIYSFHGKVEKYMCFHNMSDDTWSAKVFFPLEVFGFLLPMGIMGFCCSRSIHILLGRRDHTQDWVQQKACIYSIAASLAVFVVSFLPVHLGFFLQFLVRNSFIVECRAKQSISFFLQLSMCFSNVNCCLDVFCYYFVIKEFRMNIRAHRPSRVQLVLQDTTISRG
Chain of Tumor necrosis factor (P01375 whole entry): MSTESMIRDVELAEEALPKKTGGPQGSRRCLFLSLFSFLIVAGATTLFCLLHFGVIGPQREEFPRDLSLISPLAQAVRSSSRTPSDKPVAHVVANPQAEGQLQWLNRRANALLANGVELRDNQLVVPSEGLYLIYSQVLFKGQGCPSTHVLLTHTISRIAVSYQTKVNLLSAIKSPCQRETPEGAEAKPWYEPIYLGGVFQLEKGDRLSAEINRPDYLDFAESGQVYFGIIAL
Chain of Induced myeloid leukemia cell differentiation protein Mcl-1 (Q07820 whole entry): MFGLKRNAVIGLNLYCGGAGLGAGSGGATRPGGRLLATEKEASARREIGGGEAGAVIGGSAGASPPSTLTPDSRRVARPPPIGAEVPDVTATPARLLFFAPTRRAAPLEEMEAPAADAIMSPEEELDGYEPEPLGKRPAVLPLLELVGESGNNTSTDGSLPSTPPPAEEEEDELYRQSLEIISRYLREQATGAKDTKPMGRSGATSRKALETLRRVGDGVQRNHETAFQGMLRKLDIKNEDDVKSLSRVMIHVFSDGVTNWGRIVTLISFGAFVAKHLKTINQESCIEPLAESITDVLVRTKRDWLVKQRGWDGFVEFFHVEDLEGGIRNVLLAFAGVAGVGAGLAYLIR
Chain of Intestinal-type alkaline phosphatase (Homo sapiens, UniProt P09923) (P09923 whole entry): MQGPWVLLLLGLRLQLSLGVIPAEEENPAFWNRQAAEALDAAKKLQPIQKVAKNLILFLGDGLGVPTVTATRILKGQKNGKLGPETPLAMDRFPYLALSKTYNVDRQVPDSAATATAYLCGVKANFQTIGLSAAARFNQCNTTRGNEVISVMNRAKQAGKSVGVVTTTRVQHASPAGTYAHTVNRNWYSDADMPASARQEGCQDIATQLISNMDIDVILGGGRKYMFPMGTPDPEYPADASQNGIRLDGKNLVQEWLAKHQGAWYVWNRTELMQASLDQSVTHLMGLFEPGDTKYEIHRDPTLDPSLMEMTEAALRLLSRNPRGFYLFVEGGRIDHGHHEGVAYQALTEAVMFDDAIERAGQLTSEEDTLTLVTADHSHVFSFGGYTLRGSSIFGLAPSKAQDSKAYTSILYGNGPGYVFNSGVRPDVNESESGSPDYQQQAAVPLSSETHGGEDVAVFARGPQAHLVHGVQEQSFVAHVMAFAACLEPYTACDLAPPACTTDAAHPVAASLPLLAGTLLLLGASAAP

Consider `O=C(Nc1ccc(OC(F)(F)F)cc1)c1ccc(CN2CCc3ccccc3C2)cc1`, for which the IC50 (as a rule, the concentration that gives 50% inhibition) in [1] was < 0.0391 µM (active); with HEK293, > 20 µM (inactive); on Tumor necrosis factor, 0.0244 µM (active).

Turning to `Nc1nnc(CC(=O)N/N=C/c2cc([N+](=O)[O-])cc(Br)c2O)s1`, the IC50 against Bcl-2-like protein 1 was > 109 µM (not active); in [2], 23.1 µM (not active); in data set [3], > 100 µM (inactive); in data set [4], 20.6 µM (active); in data set [5], 2.79 µM (active); on Aminopeptidase N it was 30 µM (active).

As for `CC1CCN(CCCCOc2ccc(Cl)cc2)CC1`, the EC50 – broadly, the concentration at which the effect is half-maximal – in [6] was > 50 µM (active). The AC50 (usually the concentration giving half of the maximal activity seen) in data set [7] is 46.3 µM (active).

With `Cc1ccc(NC(=O)c2nnn(-c3cc(C)cc(C)c3)c2N)cc1`, the AC50 result at Cytochrome P450 2C9 [8] is on record as “inconclusive”.

In the case of `Cc1nc(N2CCN(C(=O)c3ccco3)CC2)c2c3c(sc2n1)CCCC3`, the IC50 in data set [9] is > 32 µM (inactive); on Cannabinoid receptor 1 [11], > 32 µM (inactive); at Cannabinoid receptor 2 [12] it was > 32 µM (inactive); in data set [13], 1.58 µM (active). Also, the EC50 (at Cannabinoid receptor 1 [10]; at Cannabinoid receptor 2 [14]; in [15]) was > 32 µM (inactive) each time.

As to `COC(=O)[C@@]1(Cc2ccc(F)cc2)[C@@H]2[C@@H](CC(=O)[C@H]2CC(=O)C(=O)N2CCCC2)CN1C(=O)c1ccccc1`, the AC50 entry on Cytochrome P450 1A2 was “inconclusive”; on Cytochrome P450 2C9 [16] it was 39.8 µM (inconclusive); on Cytochrome P450 2C19, 15.8 µM (inconclusive).
